Measurements as given in patent US8575135B2 (Gilead Sciences, Inc., priority 2011, dated 2013).
Read-outs that look alike come from different tables or passages of the source.

Columns and labels:
Assay in all cases: microbe, parasite or virus in culture
Conditions in all cases: Hepatitis C virus
[1] = tested on: stable HCV 1a RLuc replicon cells (genotype 1a H77 replicon); format: cell-based
[2] = tested on: 1a Pi-Rluc replicon with Q30R in genotype 1a NS5A; format: cell-based, HCV
Method in brief: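 Renilla luciferase replicon assay: 1a Pi-RLuc replicon carrying NS5A Q30R, transfected transiently into cured-51 (Huh-7-derived) cells.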

[3] = tested on: NS5A chimeric genotype 1b Con1 replicon with genotype 4a ED43 strain NS5A gene; format: cell-based, HCV
[4] = tested on: NS5A chimeric genotype 2a JFH-1 replicon with genotype 2a J6 strain NS5A gene (M31 present); format: cell-based, HCV
[5] = tested on: NS5A chimeric genotype 2a JFH-1 replicon with genotype 2b MD2b-1 strain NS5A gene (M31 present); format: cell-based, HCV
Method in brief: (§1)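 Genotype 3a (S52) and 4a (ED43) NS5A chimeras use 1b Con1 Pi-RLuc replicons, transfected transiently; 2b MD2b-1 NS5A chimera (M31) uses 2a JFH-1 RLuc-Neo replicon, transient or stable.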

[6] = tested on: NS5A chimeric genotype 1b Con1 replicon with genotype 3a S52 strain NS5A gene; format: cell-based, HCV
Method in brief: as §1

[7] = tested on: stable HCV 2a JFH-1 Rluc replicon cells (L31 present in NS5A); format: cell-based

Compound	EC50 ([1]; read-out: 1a)	EC50 ([1]; read-out: 1a (nM))	EC50 ([2]; read-out: 1a Q30R)	EC50 ([2]; read-out: 1a Q30R (nM))	EC50 ([3]; read-out: 4a)	EC50 ([3]; read-out: 4a (s) (nM))	EC50 ([3]; read-out: 4a (t) (nM))	EC50 ([4]; read-out: 2a J6)	EC50 ([4]; read-out: 2a J6 (s) (nM))	EC50 ([4]; read-out: 2a Jb (t) (nM))	EC50 ([5]; read-out: 2b)	EC50 ([5]; read-out: 2b (s) (nM))	EC50 ([5]; read-out: 2b (t) (nM))	EC50 ([6]; read-out: 3a)	EC50 ([6]; read-out: 3a (nM))	EC50 ([7]; read-out: 2a JFH)	EC50 ([7]; read-out: 2a JFH (nM))
COC(=O)N[C@H](C(=O)N1C[C@@H](C)C[C@H]1c1nc2ccc3cc4c(cc3c2[nH]1)OCc1cc(-c2cnc([C@@H]3CCCN3C(=O)[C@H](NC(=O)OC)c3ccccc3)[nH]2)ccc1-4)C(C)C [Example NB, Methyl {(1R)-2-[(2S)-2-(5-{2-[(2S,4S)-1-{(2S)-2-[(methoxycarbonyl)amino]-3-methylbutanoyl}-4-methylpyrrolidin-2-yl]-1,11-dihydroisochromeno[4′,3′:6,7]naphtho[1,2-d]imidazol-9-yl}-1H-imidazol-2-yl)pyrrolidin-1-yl]-2-oxo-1-phenylethyl}carbamate]	< 1 nM	0.01 nM	< 1 nM	0.034 nM	< 1 nM	0.025 nM	0.023 nM	< 1 nM	0.138 nM	0.02 nM	< 1 nM	0.039 nM	0.007 nM	< 1 nM	0.011 nM	< 1 nM	0.004 nM
COC(=O)N[C@H](C(=O)N1C[C@@H](C)C[C@H]1c1nc2ccc3cc4c(cc3c2[nH]1)OCc1cc(-c2cnc([C@@H]3CC[C@H](C)N3C(=O)[C@@H](NC(=O)OC)C(C)C)[nH]2)ccc1-4)C(C)C [Example NC, Methyl {(2S)-1-[(2S,5S)-2-(5-{2-[(2S,4S)-1-{(2S)-2-[(methoxycarbonyl)amino]-3-methylbutanoyl}-4-methylpyrrolidin-2-yl]-1,11-dihydroisochromeno[4′,3′:6,7]naphtho[1,2-d]imidazol-9-yl}-1H-imidazol-2-yl)-5-methylpyrrolidin-1-yl]-3-methyl-1-oxobutan-2-yl}carbamate]	< 1 nM	0.007 nM	< 1 nM	0.06 nM	< 1 nM	0.026 nM	0.011 nM	< 1 nM	0.762 nM	0.089 nM	< 1 nM	0.191 nM	0.068 nM	< 1 nM	0.014 nM	< 1 nM	0.005 nM
COC(=O)N[C@H](C(=O)N1C[C@@H](C)C[C@H]1c1ncc(-c2ccc3c(c2)COc2cc4c(ccc5nc([C@@H]6C[C@H](C)CN6C(=O)[C@@H](NC(=O)OC)C(C)C)[nH]c54)cc2-3)[nH]1)C(C)C [Example ND, Methyl {(2S)-1-[(2S,5S)-2-(5-{2-[(2S,4S)-1-{(2S)-2-[(methoxycarbonyl)amino]-3-methylbutanoyl}-4-methylpyrrolidin-2-yl]-1,11-dihydroisochromeno[4′,3′:6,7]naphtho[1,2-d]imidazol-9-yl}-1H-imidazol-2-yl)-4-methylpyrrolidin-1-yl]-3-methyl-1-oxobutan-2-yl}carbamate]	< 1 nM	0.02 nM	< 1 nM	0.057 nM	< 1 nM	0.044 nM	0.031 nM	< 1 nM	2.34 nM	0.314 nM	< 1 nM	1.32 nM	0.27 nM	< 1 nM	0.035 nM	< 1 nM	0.014 nM
COC(=O)N[C@H](C(=O)N1C[C@@H](C)C[C@H]1c1ncc(-c2ccc3c(c2)COc2cc4c(ccc5nc([C@@H]6C[C@H](C)CN6C(=O)[C@H](NC(=O)OC)c6ccccc6)[nH]c54)cc2-3)[nH]1)C(C)C [Example NF, Methyl {(2S)-1-[(2S,4S)-2-(5-{2-[(2S,4S)-1-{(2R)-2-[(methoxycarbonyl)amino]-2-phenylacetyl}-4-methylpyrrolidin-2-yl]-1,11-dihydroisochromeno[4′,3′:6,7]naphtho[1,2-d]imidazol-9-yl}-1H-imidazol-2-yl)-4-methylpyrrolidin-1-yl]-3-methyl-1-oxobutan-2-yl}carbamate]	< 1 nM	0.011 nM	< 1 nM	0.017 nM	< 1 nM	0.012 nM	0.009 nM	< 1 nM	0.218 nM	0.031 nM	< 1 nM	0.064 nM	0.018 nM	< 1 nM	0.017 nM	< 1 nM	0.006 nM
COC(=O)N[C@H](C(=O)N1[C@@H](C)CC[C@H]1c1ncc(-c2ccc3c(c2)COc2cc4c(ccc5nc([C@@H]6CC[C@H](C)N6C(=O)[C@@H](NC(=O)OC)C(C)C)[nH]c54)cc2-3)[nH]1)C(C)C [Example NG, Methyl {(2S)-1-[(2S,5S)-2-(5-{2-[(2S,5S)-1-{(2S)-2-[(methoxycarbonyl)amino]-3-methylbutanoyl}-5-methylpyrrolidin-2-yl]-1,11-dihydroisochromeno[4′,3′:6,7]naphtho[1,2-d]imidazol-9-yl}-1H-imidazol-2-yl)-5-methylpyrrolidin-1-yl]-3-methyl-1-oxobutan-2-yl}carbamate]	< 1 nM	0.006 nM	< 1 nM	0.243 nM	< 1 nM		0.008 nM	< 1 nM	1.67 nM	0.37 nM	< 1 nM	0.135 nM	0.063 nM	< 1 nM	0.02 nM	< 1 nM	0.01 nM
CC[C@H](C)[C@H](NC(=O)OC)C(=O)N1C[C@@H](COC)C[C@H]1c1nc2ccc3cc4c(cc3c2[nH]1)OCc1cc(-c2cnc([C@@H]3CC[C@H](C)N3C(=O)[C@@H](NC(=O)OC)[C@@H](C)CC)[nH]2)ccc1-4 [Example NJ, Methyl {(2S,3S)-1-[(2S,5S)-2-(5-{2-[(2S,4S)-1-{(2S,3S)-2-[(methoxycarbonyl)amino]-3-methylpentanoyl}-4-(methoxymethyl)pyrrolidin-2-yl]-1,11-dihydroisochromeno[4′,3′:6,7]naphtho[1,2-d]imidazol-9-yl}-1H-imidazol-2-yl)-5-methylpyrrolidin-1-yl]-3-methyl-1-oxopentan-2-yl}carbamate]	< 1 nM	0.007 nM	< 1 nM	0.025 nM	< 1 nM	0.017 nM		< 1 nM	0.939 nM	0.099 nM	< 1 nM	0.416 nM	0.094 nM	< 1 nM	0.019 nM	< 1 nM	0.007 nM
COC[C@H]1C[C@@H](c2ncc(-c3ccc4c(c3)COc3cc5c(ccc6nc([C@@H]7C[C@H](COC)CN7C(=O)[C@@H](NC(=O)OC)C(C)C)[nH]c65)cc3-4)[nH]2)N(C(=O)[C@@H](NC(=O)OC)C(C)C)C1 [Example OI, Methyl {(2S)-1-[(2S,4S)-2-(5-{2-[(2S,4S)-1-{(2S)-2-[(methoxycarbonyl)amino]-3-methylbutanoyl}-4-(methoxymethyl)pyrrolidin-2-yl]-1,11-dihydroisochromeno[4′,3′:6,7]naphtho[1,2-d]imidazol-9-yl}-1H-imidazol-2-yl)-4-(methoxymethyl)pyrrolidin-1-yl]-3-methyl-1-oxobutan-2-yl}carbamate]	< 1 nM	0.024 nM	< 1 nM	0.086 nM	< 1 nM	0.007 nM	0.036 nM	< 1 nM	0.326 nM	0.061 nM	< 1 nM	0.629 nM	0.178 nM	< 1 nM	0.206 nM	< 1 nM	0.01 nM
